Assay results reported in patent publication US9782345B2, “Ocular composition and method” (Jade Therapeutics, Inc, priority 2013, dated 2017).

Test: Tobramycin release study from CMHA-S/PEGDA films (OPA fluorescence assay)
Type: physicochemical
Procedure: Tobramycin sulfate (2 mg/film) and tobramycin free base (2 mg/film) were used for this study. As tobramycin absorbs UV weakly, OPA assay and measuring fluorescence were used to calculate cumulative release of tobramycin. Amount of release tobramycin was calculated from standard curve. The accumulated release amount of tobramycin was more than 1 mg (thus more than 50% release) over 7 days.
Drug-loaded films were placed in PBS for the antibiotic release study. The fluid was removed and assayed daily. For tobramycin, detection was performed using an O-phthaldialdehyde (OPA) reagent. OPA, in the presence of reduced sulfhydryl groups, reacts with the primary amine group in tobramycin to form fluorescent moieties. The fluorescence was measured at an excitation wavelength of 360 nm, and an emission wavelength of 460 nm. The amount of released drug was calculated using a standard solution of tobramycin. For moxifloxacin, UV absorption at 293 nm was used to measure the amount of released drug. The amount of released drug was calculated using a standard solution of moxifloxacin. This removed fluid was also used to assess the bactericidal capability of released antibiotic by the disk diffusion method on agar plates seeded with S. aureus and P. aeruginosa measuring zone of inhibition (ZOI). Similar ZOI bacterial work was also performed using the actual films by an outside lab, Analytical Resource Lab (ARL, Salt Lake City, Utah).
Each film contained 40 μg of tobramycin free base. CMHA-S films were made with 3 different crosslinking ratios: 1.5, 2.0, or 2.5. As tobramycin absorbs UV weakly, OPA assay was used to measure fluorescence using low concentrations of tobramycin. The amount of released tobramycin was calculated from a standard curve. The accumulated released amount of tobramycin was more than 20 μg (thus more than 50% release) over 7 days. The release increased continuously up to day 3 and remained unchanged for the different thiol to acrylate ratios.

release of tobramycin (share of load) (40 μg tobramycin free base per film, over 7 days (FIG. 5)): more than 50%
accumulated released amount of tobramycin (40 μg tobramycin free base per film, thiol to acrylate 1.5, 2.0, 2.5, over 7 days (FIG. 5)): more than 20 μg
accumulated release amount of tobramycin (2 mg/film tobramycin sulfate or free base, thiol to acrylate 1.5 and 2.0, over 7 days (FIG. 3)): more than 1 mg
release of tobramycin (share of load) (2 mg/film, over 7 days (FIG. 3)): more than 50%
Compound: NC[C@H]1O[C@H](O[C@H]2[C@H](O)[C@@H](O[C@H]3O[C@H](CO)[C@@H](O)[C@H](N)[C@H]3O)[C@H](N)C[C@@H]2N)[C@H](N)C[C@@H]1O [tobramycin]
